Assay results: patent US7846928B2, “Substituted pyrazolopyridines and salts thereof, pharmaceutical compositions comprising same, methods of preparing same and uses of same” (Bayer Schering Pharma AG, priority 2006, dated 2010)
pIC50: −log10 of the molar value.

Tests used:
[1] = molecular target: T1, Tie2 (Homo sapiens, UniProt Q02763); experiment: Tie2 ELISA assay (assay 1): cellular Tie2 autophosphorylation in Tie2-transfected CHO cells stimulated by angiopoietin-2; format: cell-based; set-up: expressed in transfected cells; host or cells: CHO (DHFR-deficient), stably transfected: CHO Tie2/DHFR; conditions: CHO Tie2/DHFR cells, Ang2 stimulated, Tie2 autophosphorylation sandwich-ELISA; pIC50 = -log IC50 molar; read-out: Tie 2 activity (assay 1)
Description: Cellular activity of compounds of the present invention as inhibitors of Tie2 kinase activity was measured employing a Tie2 ELISA assay as described in the following paragraphs. Herein CHO cell-cultures, which are stably transfected by known techniques with Tie2 using DHFR deficiency as selection marker, are stimulated by angiopoietin-2. The specific autophosphorylation of Tie2 receptors is quantified with a sandwich-ELISA using anti-Tie2 antibodies for catch and anti-phosphotyrosine antibodies coupled to HRP for detection.
• 96 well tissue culture plate, sterile, Greiner • 96 well FluoroNunc plate MaxiSorp Surface C, Nunc • 96 well plate polypropylene for compound dilution in DMSO • CHO Tie2/DHFR (transfected cells) • PBS−; PBS++, DMSO • MEM alpha Medium with Glutamax-I without Ribonucleosides and • Deoxyribonucleosides (Gibco #32561-029) • with 10% FCS after dialysis! and 1% PenStrep • Lysis buffer: 1 Tablet “Complete” protease inhibitor • 1 cap Vanadate (1 mL>40 mg/mL; working solution 2 mM) • ad 50 mL with Duschl-Puffer • pH 7.6 • Anti-Tie2-antibody 1:425 in Coating Buffer pH 9.6 • Stock solution: 1.275 mg/mL>working: 3 μg/mL • PBST: 2 bottles PBS(10×)+10 ml Tween, fill up with VE-water • RotiBlock 1:10 in VE-water • Anti-Phosphotyrosine HRP-Conjugated 1:10000 in 3% TopBlock • 3% TopBlock in PBST • BM Chemiluminescence ELISA Substrate (POD) • solution B1:100 solution A • SF9 cell culture medium • Ang2-Fc in SF9 cell culture medium Cell Experiment: • Dispense 5×10^4 cells/well/98 μL in 96 well tissue culture plate • Incubate at 37° C./5% CO2 • After 24 h add compounds according to desired concentrations • Add also to control and stimulated values without compounds 2 μL DMSO • And mix for a few min at room temperature • Add 100 μL Ang2-Fc to all wells except control, which receives insect medium • Incubate 20 min at 37° C. • Wash 3× with PBS++ • Add 100 μl Lysis buffer/well and shake a couple of min at room temperature • Store lysates at 20° C. before utilizing for the ELISA Performance of Sandwich-ELISA • Coat 96 well FluoroNunc Plate MaxiSorp Surface C with anti-Tie2 mAb • 1:425 in Coating buffer pH 9.6; 100 μL/well overnight at 4° C. • Wash 2× with PBST • Block plates with 250 μL/well RotiBlock 1:10 in VE-water • Incubate for 2 h at room temperature or overnight at 4° C. shaking • Wash 2× in PBST • Add thawed lysates to wells and incubate overnight shaking at 4° C. • Wash 2× with PBST • Add 100 μL/well anti-Phosphotyrosine HRP-Conjugated 1:10000 in 3% • TopBlock (3% TopBlock in PBST) and incubate overnight under shaking • Wash 6× with PBST • Add 100 μL/well BM Chemiluminescence ELISA Substrate (POD) • solutions 1 und 2 (1:100) • Determine luminescence with the LumiCount. Assay 2: Tie-2-Kinase HTRF-Assay without Kinase Preactivation
Target sequence in this assay (Q02763 23-1124): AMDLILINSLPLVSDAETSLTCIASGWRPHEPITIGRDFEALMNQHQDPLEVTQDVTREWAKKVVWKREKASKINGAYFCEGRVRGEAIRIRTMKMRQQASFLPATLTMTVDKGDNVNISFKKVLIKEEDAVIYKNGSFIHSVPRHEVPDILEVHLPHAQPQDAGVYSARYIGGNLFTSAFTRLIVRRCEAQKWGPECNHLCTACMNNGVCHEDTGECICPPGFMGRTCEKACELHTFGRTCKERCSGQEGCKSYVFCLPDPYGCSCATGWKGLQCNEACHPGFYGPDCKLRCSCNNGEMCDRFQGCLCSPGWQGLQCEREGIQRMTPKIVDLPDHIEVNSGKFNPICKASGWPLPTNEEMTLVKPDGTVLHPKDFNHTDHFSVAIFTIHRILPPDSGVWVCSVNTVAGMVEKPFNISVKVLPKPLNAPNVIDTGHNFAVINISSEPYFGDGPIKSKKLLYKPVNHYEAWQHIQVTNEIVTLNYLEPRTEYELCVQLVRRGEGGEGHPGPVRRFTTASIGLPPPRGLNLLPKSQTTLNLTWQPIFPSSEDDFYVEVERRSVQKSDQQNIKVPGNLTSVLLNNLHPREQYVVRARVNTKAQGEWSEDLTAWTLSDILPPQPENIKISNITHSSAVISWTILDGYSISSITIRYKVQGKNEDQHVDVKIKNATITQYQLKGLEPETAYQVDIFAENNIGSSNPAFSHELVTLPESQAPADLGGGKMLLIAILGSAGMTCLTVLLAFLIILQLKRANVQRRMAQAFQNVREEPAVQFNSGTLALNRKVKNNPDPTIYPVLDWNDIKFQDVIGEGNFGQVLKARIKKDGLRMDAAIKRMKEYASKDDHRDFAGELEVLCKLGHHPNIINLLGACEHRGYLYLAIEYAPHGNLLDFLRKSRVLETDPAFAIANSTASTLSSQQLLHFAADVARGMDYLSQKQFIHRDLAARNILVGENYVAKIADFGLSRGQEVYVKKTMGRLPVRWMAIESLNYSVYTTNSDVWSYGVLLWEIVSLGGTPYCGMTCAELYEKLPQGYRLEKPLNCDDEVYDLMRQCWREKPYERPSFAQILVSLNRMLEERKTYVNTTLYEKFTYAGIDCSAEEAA

[2] = molecular target: T1, Tie2; experiment: Tie-2-Kinase HTRF-Assay without kinase preactivation (assay 2); format: biochemical; set-up: fusion protein of GST and the intracellular domains of Tie-2; GST; made in house; host or cells: insect cells (Hi-5); conditions: GST-Tie-2 without preactivation, 10 μM ATP; pIC50 = -log IC50 molar
Text: Tie2-inhibitory activity of compounds of the present invention was quantified employing two Tie2 HTRF assay as described in the following paragraphs.
A recombinant fusion protein of GST and the intracellular domains of Tie-2, expressed in insect cells (Hi-5) and purified by Glutathion-Sepharose affinity chromatography was used as kinase. Alternatively, commercially available GST-Tie2-fusion protein (Upstate Biotechnology, Dundee, Scotland) can be used As substrate for the kinase reaction the biotinylated peptide biotin-Ahx-EPKDDAYPLYSDFG (C-terminus in amid form) was used which can be purchased e.g. from the company Biosynthan GmbH (Berlin-Buch, Germany). Detection of phosphorylated product is achieved specifically by a trimeric detection complex consisting of the phosphorylated substrate, streptavidin-XLent (SA-XLent) which binds to biotin, and Europium Cryptate-labeled anti-phosphotyrosine antibody PT66 which binds to phosphorylated tyrosine.
Tie-2 (3.5 ng/measurement point) was incubated for 60 min at 22° C. in the presence of 10 μM adenosine-tri-phosphate (ATP) and 1 μM substrate peptide (biotin-Ahx-EPKDDAYPLYSDFG-NH2) with different concentrations of test compounds (0 μM and concentrations in the range 0.001-20 μM) in 5 μl assay buffer [50 mM Hepes/NaOH pH 7, 10 mM MgCl2, 0.5 mM MnCl2, 1.0 mM dithiothreitol, 0.01% NP40, protease inhibitor mixture (“Complete w/o EDTA” from Roche, 1 tablet per 2.5 ml), 1% (v/v) dimethylsulfoxide]. The reaction was stopped by the addition of 5 μl of an aqueous buffer (25 mM Hepes/NaOH pH 7.5, 0.28% (w/v) bovine serum albumin) containing EDTA (90 mM) and the HTRF (Homogeneous Time Resolved Fluorescence) detection reagents streptavidine-XLent (0.2 μM, from Cis Biointernational, Marcoule, France) and PT66-Eu-Chelate (0.3 ng/μl; a europium-chelate labelled anti-phospho-tyrosine antibody from Perkin Elmer).
The resulting mixture was incubated 1 h at 22° C. to allow the binding of the biotinylated phosphorylated peptide to the streptavidine-XLent and the PT66-Eu-Chelate. Subsequently the amount of phosphorylated substrate peptide was evaluated by measurement of the resonance energy transfer from the PT66-Eu-Chelate to the streptavidine-XLent. Therefore, the fluorescence emissions at 620 nm and 665 nm after excitation at 350 nm was measured in a HTRF reader, e.g. a Rubystar (BMG Labtechnologies, Offenburg, Germany) or a Viewlux (Perkin-Elmer). The ratio of the emissions at 665 nm and at […] was taken as the measure for the amount of phosphorylated substrate peptide. The data were normalised (enzyme reaction without inhibitor=0% inhibition, all other assay components but no enzyme=100% inhibition) and IC50 values were calculated by a 4 parameter fit using an inhouse software.
Target sequence in this assay (Q02763 770-1124 limits assumed): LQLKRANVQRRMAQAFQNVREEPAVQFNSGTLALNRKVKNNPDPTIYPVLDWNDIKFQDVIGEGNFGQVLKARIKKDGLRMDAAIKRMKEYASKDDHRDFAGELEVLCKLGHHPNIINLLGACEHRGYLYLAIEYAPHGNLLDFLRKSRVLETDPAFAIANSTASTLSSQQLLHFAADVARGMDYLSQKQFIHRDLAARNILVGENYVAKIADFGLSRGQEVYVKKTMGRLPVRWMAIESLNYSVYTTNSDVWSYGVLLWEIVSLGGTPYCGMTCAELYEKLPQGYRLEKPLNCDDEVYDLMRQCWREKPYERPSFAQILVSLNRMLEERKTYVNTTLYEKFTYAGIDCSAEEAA

Row | SMILES | pIC50 [1] | pIC50 [2] | melting point [°C]
1 | CC(C)c1cc(-c2ccc(NC(=O)Nc3cccc(C(F)(F)F)c3)cc2)c2cnn(CCCN3CCOCC3)c2n1 [1.25, 1-{4-[6-Isopropyl-1-(3-morpholin-4-yl-propyl)-1H-pyrazolo[3,4-b]pyridin-4-yl]-phenyl}-3-(3-trifluoromethyl-phenyl)-urea] | > 6.30 | 5.00 to 6.00 | 
2 | Cn1ncc2c(-c3ccc(NC(=O)Nc4cccc(C(F)(F)F)c4)cc3)cc(C3(C(=O)N4CCCC4)CC3)nc21 [1.27, 1-(4-{1-Methyl-6-[1-(pyrrolidine-1-carbonyl)-cyclopropyl]-1H-pyrazolo[3,4-b]pyridin-4-yl}-phenyl)-3-(3-trifluoromethyl-phenyl)-urea] | > 6.30 | > 6.30 | 
3 | Cc1cc(-c2ccc(NC(=O)Nc3cc(C(F)(F)F)ccc3N3CCCC3)cc2)c2cnn(C)c2n1 [2.8, 1-[4-(1,6-Dimethyl-1H-pyrazolo[3,4-b]pyridin-4-yl)-phenyl]-3-(2-pyrrolidin-1-yl-5-trifluoromethyl-phenyl)-urea] |  |  | 236
